Results taken from ChEMBL document CHEMBL6087389, “Hydrazone-Functionalized trans-A2B-Corroles: Effective Synergy in Photodynamic Therapy of Lung Cancer” (J Med Chem, 2024).
Active and inactive are the calls of the source. The rule behind the calls is not given here.

Experiments:
NCI-H1299 [1] = assay: Induction of apoptosis in human NCI-H1299 cells assessed as reduction in viability at 100 to 500 nM preincubated for 24 hrs followed by irradiated with 7.5 to 10 mW/cm^-2 red light for 24 hrs by Annexin V and propidium iodide staining based flow cytometry relative to control; assay type: functional; conditions: dose 100-500 nM, time 48 hrs
A549 [2] = assay: Induction of apoptosis in human A549 cells assessed as reduction in viable cells at 100 nM preincubated for 24 hrs followed by irradiated with 7.5 to 10 mW/cm^-2 red light for 24 hrs by Annexin V and propidium iodide staining based flow cytometry relative to control; assay type: functional; conditions: time 48 hrs
NCI-H1299 [3] = assay: Induction of apoptosis in human NCI-H1299 cells assessed as late apoptotic/necrotic cells at 100 nM preincubated for 24 hrs followed by irradiated with 7.5 to 10 mW/cm^-2 red light for 24 hrs by Annexin V and propidium iodide staining based flow cytometry relative to control; assay type: functional; conditions: time 48 hrs
NCI-H1299 [4] = assay: Dark toxicity against human NCI-H1299 cells assessed as reduction in metabolic activity at <1 uM incubated for 4 hrs by MTT assay; assay type: cell-based; conditions: nci-h1299, 4 h
A549 [5] = assay: Dark toxicity against human A549 cells assessed as reduction in metabolic activity at 10 uM incubated for 4 hrs by MTT assay; assay type: cell-based; conditions: a549, 4 h
A549 [6] = assay: Induction of apoptosis in human A549 cells assessed as late apoptotic/necrotic cells at 500 nM preincubated for 24 hrs followed by irradiated with 7.5 to 10 mW/cm^-2 red light for 24 hrs by Annexin V and propidium iodide staining based flow cytometry relative to control; assay type: functional; conditions: time 48 hrs
A549 [7] = assay: Induction of apoptosis in human A549 cells assessed as early apoptotic cells at 100 to 500 nM preincubated for 24 hrs followed by irradiated with 7.5 to 10 mW/cm^-2 red light for 24 hrs by Annexin V and propidium iodide staining based flow cytometry relative to control; assay type: functional; conditions: dose 100-500 nM, time 48 hrs
NCI-H1299 [8] = assay: Dark toxicity against human NCI-H1299 cells assessed as reduction in metabolic activity at 10 uM incubated for 4 hrs by MTT assay; assay type: cell-based; set-up: scale not given: the % may be the effect or the level left; conditions: nci-h1299, 4 h
NCI-H1299 [9] = assay: Induction of apoptosis in human NCI-H1299 cells assessed as late apoptotic/necrotic cells at 500 nM preincubated for 24 hrs followed by irradiated with 7.5 to 10 mW/cm^-2 red light for 24 hrs by Annexin V and propidium iodide staining based flow cytometry relative to control; assay type: functional; conditions: time 48 hrs
A549 [10] = assay: Induction of apoptosis in human A549 cells assessed as viable cells at 500 nM preincubated for 24 hrs followed by irradiated with 7.5 to 10 mW/cm^-2 red light for 24 hrs by Annexin V and propidium iodide staining based flow cytometry relative to control; assay type: functional; conditions: A549, light or radiation study, time 48 hrs, read-out: Activity
[11] = Phototoxicity against human A549 cells assessed as reduction in cell viability preincubated for 24 hrs followed by 7.5 to 10 mW/cm^-2 red light irradiation and measured after 24 hrs by MTT assay; assay type: functional, cell-based; conditions: A549, light or radiation study
[12] = Phototoxicity against human NCI-H1299 cells assessed as reduction in cell viability preincubated for 24 hrs followed by 7.5 to 10 mW/cm^-2 red light irradiation and measured after 24 hrs by MTT assay; assay type: functional, cell-based; conditions: NCI-H1299, light or radiation study
NCI-H1299 [13] = assay: Induction of apoptosis in human NCI-H1299 cells assessed as appearance of necrosis at 100 to 250 nM preincubated for 24 hrs followed by irradiated with 7.5 to 10 mW/cm^-2 red light for 24 hr by May-Grunwald/Giemsa staining by light microscopic analysis; assay type: functional, cell-based; conditions: dose 100-250 nM, time 48.0 hrs
NCI-H1299 [14] = assay: Induction of apoptosis in human NCI-H1299 cells assessed as early apoptotic cells at 500 nM preincubated for 24 hrs followed by irradiated with 7.5 to 10 mW/cm^-2 red light for 24 hrs by Annexin V and propidium iodide staining based flow cytometry relative to control; assay type: functional; conditions: time 48 hrs
[15] = Fluorescence property of the compound in THF assessed as fluorescence quantum yield by photoluminescence quantum yield spectrometer; assay type: physicochemical
A549 [16] = assay: Induction of apoptosis in human A549 cells assessed as late apoptotic/necrotic cells at 100 to 500 nM preincubated for 24 hrs followed by irradiated with 7.5 to 10 mW/cm^-2 red light for 24 hrs by Annexin V and propidium iodide staining based flow cytometry relative to control; assay type: functional; conditions: dose 100-500 nM, time 48 hrs
A549 [17] = assay: Dark toxicity against human A549 cells assessed as reduction in metabolic activity at <1 uM incubated for 4 hrs by MTT assay; assay type: cell-based; conditions: a549, 4 h
[18] = Induction of singlet oxygen generation in THF assessed as singlet oxygen quantum yield by comparative photoluminescence method; assay type: functional
NCI-H1299 [19] = assay: Induction of apoptosis in human NCI-H1299 cells assessed as early apoptotic cells at 100 nM preincubated for 24 hrs followed by irradiated with 7.5 to 10 mW/cm^-2 red light for 24 hrs by Annexin V and propidium iodide staining based flow cytometry relative to control; assay type: functional; conditions: time 48 hrs
[20] = Fluorescence property of the compound in DMSO assessed as fluorescence quantum yield by photoluminescence quantum yield spectrometer; assay type: physicochemical
A549 [21] = assay: Induction of apoptosis in human A549 cells assessed as increase in apoptotic cells at 500 nM preincubated for 24 hrs followed by irradiated with 7.5 to 10 mW/cm^-2 red light for 24 hrs by Annexin V and propidium iodide staining based flow cytometry relative to control; assay type: functional; conditions: time 48 hrs
Mitochondrial membrane [22] = assay: Induction of mitochondrial membrane depolarization in human A549 cells assessed as increase in monomer to aggregate ratio at 100 nM preincubated for 15 mins irradiated with 7.5 to 10 mW/cm^-2 red light by JC-1 fluorescent probe based flow cytometric analysis (reference value: 24.7+/-6.9); assay type: cell membranes
A549 [23] = assay: Induction of superoxide anion production in human A549 cells irradiated with 7.5 to 10 mW/cm^-2 red light for 24 hrs at 100 to 250 nM incubated for 2 hrs by DHE and DCFH2-DA staining based fluorimetric analysis; assay type: functional, cell-based; conditions: dose 100-250 nM
A549 [24] = assay: Photocytotoxicity in human A549 cells assessed as metabolic activity in presence of sodium azide measured preincubated for 24 hrs followed by irradiated with 7.5 to 10 mW/cm^-2 red light for 24 hrs by MTT assay; assay type: functional, cell-based; conditions: A549, light or radiation study
A549 [25] = assay: Reduction in hydrogen peroxide production in human A549 cells irradiated with 7.5 to 10 mW/cm^-2 red light for 24 hrs at 100 to 250 nM measured after 2 hrs by DHE and DCFH2-DA staining based fluorimetric analysis; assay type: functional, cell-based; conditions: dose 100-250 nM
A549 [26] = assay: Induction of apoptosis in human A549 cells assessed as necrotic cells at 100 nM preincubated for 24 hrs followed by irradiated with 7.5 to 10 mW/cm^-2 red light for 24 hrs by Annexin V and propidium iodide staining based flow cytometry relative to control; assay type: functional; conditions: time 48 hrs
A549 [27] = assay: Induction of apoptosis in human A549 cells assessed as necrotic cells at 500 nM preincubated for 24 hrs followed by irradiated with 7.5 to 10 mW/cm^-2 red light for 24 hrs by Annexin V and propidium iodide staining based flow cytometry relative to control; assay type: functional; conditions: time 48 hrs
A549 [28] = assay: Induction of apoptosis in human A549 cells assessed as reduction in viable cells at 500 nM preincubated for 24 hrs followed by irradiated with 7.5 to 10 mW/cm^-2 red light for 24 hrs by Annexin V and propidium iodide staining based flow cytometry relative to control; assay type: functional; conditions: time 48 hrs
A549 [29] = assay: Induction of apoptosis in human A549 cells assessed as late apoptotic cells at 100 nM preincubated for 24 hrs followed by irradiated with 7.5 to 10 mW/cm^-2 red light for 24 hrs by Annexin V and propidium iodide staining based flow cytometry relative to control; assay type: functional; conditions: time 48 hrs
NCI-H1299 [30] = assay: Reduction in hydrogen peroxide production in human NCI-H1299 cells irradiated with 7.5 to 10 mW/cm^-2 red light for 24 hrs at 0 to 250 nM incubated for 2 hrs by DHE and DCFH2-DA staining based fluorimetric analysis; assay type: functional, cell-based; conditions: dose 0-250 nM
A549 [31] = assay: Induction of apoptosis in human A549 cells assessed as late apoptotic cells at 500 nM preincubated for 24 hrs followed by irradiated with 7.5 to 10 mW/cm^-2 red light for 24 hrs by Annexin V and propidium iodide staining based flow cytometry relative to control; assay type: functional; conditions: time 48 hrs
Mitochondrial membrane [32] = assay: Induction of mitochondrial membrane depolarization in human A549 cells assessed as increase in monomer to aggregate ratio at 250 nM preincubated for 15 mins irradiated with 7.5 to 10 mW/cm^-2 red light by JC-1 fluorescent probe based flow cytometric analysis (reference value: 24.7+/-6.9); assay type: cell membranes
NCI-H1299 [33] = assay: Induction of superoxide anion production in human NCI-H1299 cells irradiated with 7.5 to 10 mW/cm^-2 red light for 24 hrs at 100 to 250 nM incubated for 2 hrs by DHE and DCFH2-DA staining based fluorimetric analysis; assay type: functional, cell-based; conditions: dose 100-250 nM
Mitochondrial membrane [34] = assay: Induction of mitochondrial membrane depolarization in human NCI-H1299 cells assessed as increase in monomer to aggregate ratio at 100 nM preincubated for 15 mins irradiated with 7.5 to 10 mW/cm^-2 red light by JC-1 fluorescent probe based flow cytometric analysis (reference value: 1.0+/-0.00); assay type: cell membranes
Mitochondrial membrane [35] = assay: Induction of mitochondrial membrane depolarization in human NCI-H1299 cells assessed as increase in monomer to aggregate ratio at 250 nM preincubated for 15 mins irradiated with 7.5 to 10 mW/cm^-2 red light by JC-1 fluorescent probe based flow cytometric analysis (reference value: 1.0+/-0.00); assay type: cell membranes
A549 [36] = assay: Induction of apoptosis in human A549 cells assessed as increase in apoptotic cells at 100 nM preincubated for 24 hrs followed by irradiated with 7.5 to 10 mW/cm^-2 red light for 24 hrs by Annexin V and propidium iodide staining based flow cytometry relative to control; assay type: functional; conditions: time 48 hrs

SMILES	Activity (NCI-H1299 [1])	Activity (A549 [2]) [%]	Activity (NCI-H1299 [3]) [%]	Activity (NCI-H1299 [4])	Activity (A549 [5])	Activity (NCI-H1299 [8])	Activity (NCI-H1299 [9]) [%]	IC50 [11] [nM]	IC50 [12] [nM]	Activity (NCI-H1299 [13])	Activity (NCI-H1299 [14]) [%]	Activity [15]	Activity (A549 [17])	Activity [18]	Activity (NCI-H1299 [19]) [%]	Activity [20]	other results
C/C(=N\NS(=O)(=O)c1ccc(C)cc1)c1c2nc(c(-c3ccccc3)c3ccc([nH]3)c3ccc([nH]3)c(-c3ccccc3)c3ccc1[nH]3)C=C2	>=75%	48	23.2	Non-toxic	Non-toxic	73.8%	75.5	101	52.3	Active	19.8	0.114	Non-toxic	0.26	12.7	0.282	Activity (A549 [6]): 92.7%; Activity (A549 [7]): 16.9%; viability at 0.5 µM (A549 [10]): 2%; Activity (A549 [16]): 24.6%
C/C(=N/NC(=O)OC(C)(C)C)c1c2nc(c(-c3ccccc3)c3ccc([nH]3)c3ccc([nH]3)c(-c3ccccc3)c3ccc1[nH]3)C=C2	>=75%	20.8	57.9	Non-toxic	Non-toxic	Non-toxic	28.8	94.9	25	Active	69	0.14	Non-toxic	0.39	20.1	0.267	Activity (A549 [21]): 17.5%; Activity (Mitochondrial membrane [22]): 39.7; Activity (A549 [23]): Active; IC50 (A549 [24]): 373 nM; Activity (A549 [25]): Active; Activity (A549 [26]): 22.8%; Activity (A549 [27]): 26.5%; Activity (A549 [28]): 18%; Activity (A549 [29]): 35.5%; Activity (NCI-H1299 [30]): Active; Activity (A549 [31]): 38%; Activity (Mitochondrial membrane [32]): 47.7; Activity (NCI-H1299 [33]): Active; Activity (Mitochondrial membrane [34]): 1.7; Activity (Mitochondrial membrane [35]): 4; Activity (A549 [36]): 21%
